Data from patent US8053465B2, “Bicycloester derivative” (Kyorin Pharmaceutical Co., Ltd., priority 2004, dated 2011).
pIC50: −log10 of the molar value.

Key:
[1] = target: T1, plasma dipeptidylpeptidase IV (Homo sapiens, UniProt P27487); assay: In vitro dipeptidylpeptidase IV inhibitory activity (plasma, H-Gly-Pro-AMC fluorometry); format: biochemical; conditions: plasma diluted 8-fold, H-Gly-Pro-AMC.HBr substrate, room temperature 20 minutes
T1 construct: 20 μL of plasma diluted 8-fold with saline in a well of a 96-well flat bottom plate; from tissue
Method: The concentration of free 7-amino-4-methyl-coumarin (AMC) generated by hydrolysis of H-Gly-Pro-AMC.HBr substrate by plasma dipeptidylpeptidase IV was determined by fluorometry.
A 20 μL of buffer (25 mmol/L hepes, 140 mmol/L sodium chloride, 1% bovine serum albumin, 80 mmol/L magnesium chloride hexahydrate, pH 7.4) containing each compound was added to 20 μL of plasma diluted 8-fold with saline in a well of a 96-well flat bottom plate. The plate was left at room temperature for 5 minutes and 10 μL of 0.1 mmol/L H-Gly-Pro-AMC.HBr solution was added to each well to initiate the reaction. […] Using a fluorescent plate reader, the free AMC concentration was determined by exciting the samples at 355 nm and measuring the fluorescence intensity at 460 nm.

[2] = target: T2, plasma dipeptidylpeptidase IV (Mus musculus, UniProt P28843); assay: Inhibition of plasma dipeptidylpeptidase IV activity in mice by oral administration; format: in vivo; conditions: male ICR mice, 0.1 mg/mL suspension at 10 mL/kg, 30 minutes after administration
T2 construct: The blood samples were centrifuged at 6000 rpm for 2 minutes to separate plasma; tissue Charles River Laboratories Japan; host or cells: plasma of male ICR mice
Method: Each compound was suspended in 0.3% sodium carboxymethylcellulose to a concentration of 0.1 mg/mL. The preparation was orally administered to 8-week old male ICR mice (Charles River Laboratories Japan) at a dose of 10 mL/kg. Using an EDTA 2K-treated capillary tube, blood samples were collected from the tail vein before administration and 30 minutes after administration. The blood samples were centrifuged at 6000 rpm for 2 minutes to separate plasma. […] The inhibition was determined from the decrease in the enzymatic activity from the initial activity (% inhibition={(activity before administration−activity after administration)/(activity before administration)}×100).

T1 sequence (P27487 whole entry): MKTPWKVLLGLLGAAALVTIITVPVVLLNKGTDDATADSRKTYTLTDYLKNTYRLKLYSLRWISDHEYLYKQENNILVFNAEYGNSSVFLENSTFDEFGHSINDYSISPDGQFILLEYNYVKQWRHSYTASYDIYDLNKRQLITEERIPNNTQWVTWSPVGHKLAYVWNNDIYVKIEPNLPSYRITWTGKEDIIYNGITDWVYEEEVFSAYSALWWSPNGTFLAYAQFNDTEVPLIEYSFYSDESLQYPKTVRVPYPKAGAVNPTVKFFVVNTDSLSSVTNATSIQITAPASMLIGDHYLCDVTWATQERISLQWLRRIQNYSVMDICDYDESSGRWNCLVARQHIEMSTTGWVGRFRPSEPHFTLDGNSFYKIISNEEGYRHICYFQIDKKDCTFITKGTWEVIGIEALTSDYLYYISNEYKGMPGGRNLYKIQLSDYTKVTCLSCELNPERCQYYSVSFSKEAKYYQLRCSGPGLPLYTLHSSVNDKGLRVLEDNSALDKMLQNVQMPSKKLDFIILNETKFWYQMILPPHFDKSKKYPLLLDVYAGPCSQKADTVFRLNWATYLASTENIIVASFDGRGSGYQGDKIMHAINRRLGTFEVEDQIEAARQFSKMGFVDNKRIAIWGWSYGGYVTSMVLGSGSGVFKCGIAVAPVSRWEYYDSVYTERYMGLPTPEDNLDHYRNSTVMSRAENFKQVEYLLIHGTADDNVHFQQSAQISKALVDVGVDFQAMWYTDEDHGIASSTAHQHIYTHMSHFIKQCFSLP
T2 sequence (P28843 whole entry): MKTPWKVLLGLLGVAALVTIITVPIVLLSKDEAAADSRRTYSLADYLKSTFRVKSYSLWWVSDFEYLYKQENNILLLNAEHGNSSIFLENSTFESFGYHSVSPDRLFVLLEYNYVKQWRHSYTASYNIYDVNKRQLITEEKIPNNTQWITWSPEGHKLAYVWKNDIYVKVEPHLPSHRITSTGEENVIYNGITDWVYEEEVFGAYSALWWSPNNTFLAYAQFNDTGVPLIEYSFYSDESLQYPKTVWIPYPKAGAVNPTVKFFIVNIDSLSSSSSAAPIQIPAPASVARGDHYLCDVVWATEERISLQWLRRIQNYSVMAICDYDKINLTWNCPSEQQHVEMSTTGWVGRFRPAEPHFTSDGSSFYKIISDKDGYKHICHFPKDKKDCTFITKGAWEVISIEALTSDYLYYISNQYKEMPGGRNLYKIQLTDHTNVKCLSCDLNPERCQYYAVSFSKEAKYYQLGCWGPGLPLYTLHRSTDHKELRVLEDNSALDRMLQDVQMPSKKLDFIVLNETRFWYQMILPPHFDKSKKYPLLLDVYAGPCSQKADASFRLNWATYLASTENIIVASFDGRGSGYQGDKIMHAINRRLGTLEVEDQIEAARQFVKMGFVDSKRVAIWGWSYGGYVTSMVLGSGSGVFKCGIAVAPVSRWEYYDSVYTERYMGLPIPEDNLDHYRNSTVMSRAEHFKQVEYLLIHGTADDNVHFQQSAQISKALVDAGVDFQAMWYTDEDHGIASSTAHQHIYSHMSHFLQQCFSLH

Row | pIC50 [1] | inhibition at 100 µg/mL (stock) [2] | SMILES
1 | 9.60 | 100% | CCOC(=O)C12CCC(NCC(=O)N3C[C@@H](F)C[C@H]3C#N)(CC1)CC2 [Example 1, (2S,4S)-1-[[N-(4-ethoxycarbonylbicyclo[2.2.2]oct-1-yl)amino]acetyl]-4-fluoropyrrolidine-2-carbonitrile]
2 | 9.32 | 94% | N#C[C@@H]1C[C@H](F)CN1C(=O)CNC12CCC(C(=O)OCC3CC3)(CC1)CC2 [Example 9, (2S,4S)-1-[[N-(4-cyclopropylmethyloxycarbonylbicyclo[2.2.2]oct-1-yl)amino]acetyl]-4-fluoropyrrolidine-2-carbonitrile]
3 | 9.64 |  | N#C[C@@H]1C[C@H](F)CN1C(=O)CNC12CCC(C(=O)OCc3ccc(C(F)(F)F)cc3)(CC1)CC2 [Example 10, (2S,4S)-4-fluoro-1-[[N-[4-(4-trifluoromethylbenzyl)oxycarbonylbicyclo[2.2.2]oct-1-yl]amino]acetyl]pyrrolidine-2-carbonitrile]
4 | 9.89 | 93% | CC(C)COC(=O)C12CCC(NCC(=O)N3C[C@@H](F)C[C@H]3C#N)(CC1)CC2 [Example 11, (2S,4S)-4-fluoro-1-[[N-[4-(2-methylpropyl)oxycarbonylbicyclo[2.2.2]oct-1-yl]amino]acetyl]pyrrolidine-2-carbonitrile]
